Where “and” joins values, the source holds several entries; their conditions need not be identical. Equal values may be shown once. Read-outs that look alike come from different tables or passages of the source.
Key:
HCT-116 cells [1] = assay: MTS assay, two-hour drug treatment, drugs replaced with fresh medium, measured after one day (Study 7b); settings: FIG. 7b
Experimental: For each study, two plates of HCT-116 cells were seeded in 96-well cell culture plates (2000 cells per well for three-day studies and 10,000 cells for one-day studies). The next day, drugs prepared in 200 μl of culture medium were added to the wells. […] Each treatment was completed in triplicate. One plate was incubated at 37° C. while the other plate was incubated at 42° C. (hyperthermia) for one hour (two hours for study 7 and 8). After the treatment, 4000 freshly harvested cells (cells which were not subjected to hyperthermia) were added to 3 wells of each plate to assess the effect of hyperthermia (for one-day experiments, 20,000 cells will be added). […] Cell viability was measured using MTS assay (Promega CellTiter 96 Aqueous MTS Assay reagents).
Tested the short-term cytotoxic effects of combination treatments (±hyperthermia at 42° C. for two hour) with chemotherapeutic reagents (0.2 μM Mitomycin C or 10 μM Cisplatin) and three non-chemotherapeutic reagents (1.25 mM Vitamin C, 20 μM Selenite and 150 μM Quercetin). […] Cytotoxicity was measured with MTS assay immediately after the two-hour drug/hyperthermia treatment. • b. […] Drugs were replaced with fresh medium after the treatment, and the cytotoxic effect was measured after one day. • c. Cells were incubated with drugs for one day before the cytotoxicity was measured.

HCT-116 cells [2] = assay: MTS cell viability assay, drugs ± one-hour hyperthermia, cytotoxicity measured after three days (Studies 1-6);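 on all read-outs here: Drug-treated HCT-116 cells held one hour at 42 °C (hyperthermia) or 37 °C, then cultured at 37 °C, viability read by MTS in triplicate wells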; settings: for % cell survival / GI50 / growth inhibition at the concentrations tested / growth promoting effect / cell survival: three days; for GI50: HCT-116 cells; for effect on the cytotoxicity caused by Selenite: Study 6, FIG. 6c; for cell survival: 200 nM
Experimental: For each study, two plates of HCT-116 cells were seeded in 96-well cell culture plates (2000 cells per well for three-day studies and 10,000 cells for one-day studies). The next day, drugs prepared in 200 μl of culture medium were added to the wells. […] Each treatment was completed in triplicate. One plate was incubated at 37° C. while the other plate was incubated at 42° C. (hyperthermia) for one hour (two hours for study 7 and 8). After the treatment, 4000 freshly harvested cells (cells which were not subjected to hyperthermia) were added to 3 wells of each plate to assess the effect of hyperthermia (for one-day experiments, 20,000 cells will be added). Both plates were incubated at 37° C. for the number of days specified in each study. Cell viability was measured using MTS assay (Promega CellTiter 96 Aqueous MTS Assay reagents).
Cytotoxicity was measured after three days.
The non-chemotherapeutic agent combinations tested were: Vitamin C/Selenite and Vitamin C/Selenite/Quercetin. Cytotoxicity was measured after three days.
The non-chemotherapeutic agent combinations tested were: Vitamin E/Selenite/Quercetin and Selenite/Quercetin. Cytotoxicity was measured after three days.
Tested the cytotoxic effects of combination treatments (±hyperthermia at 42° C. for one hour) with chemotherapeutic reagents (Mitomycin C at 0.2 and 0.8 μM or Cisplatin at 2.5 and 10 μM) and four non-chemotherapeutic reagents (100 nM Vitamin D, 40 μM Vitamin E, 20 μM Selenite and 150 μNA Quercetin). The non-chemotherapeutic agent combinations tested were: Quercetin/Vitamin D/Vitamin E/Selenite, Vitamin E/Selenite, and Vitamin D/Vitamin E/Selenite. Cytotoxicity was measured after three days.
The non-chemotherapeutic agent combinations tested were: Vitamin C/Selenite, Vitamin C/Quercetin, Selenite/Quercetin and Vitamin C/Selenite/Quercetin. Cytotoxicity was measured after three days.

[3] = read-out: Growth inhibition (GI50)
[4] = Study 5, no chemotherapeutic, 100 nM Vitamin D, 40 μM Vitamin E, 20 μM Selenite, 150 μM Quercetin as named, 37° C.
[5] = Study 5, no chemotherapeutic, 100 nM Vitamin D, 40 μM Vitamin E, 20 μM Selenite, 150 μM Quercetin as named, 42° C. 1 hr
[6] = Study 4, no chemotherapeutic, 40 μM Vitamin E, 20 μM Selenite, 150 μM Quercetin as named, 37° C.
[7] = Study 4, no chemotherapeutic, 40 μM Vitamin E, 20 μM Selenite, 150 μM Quercetin as named, 42° C. 1 hr

Compound: N.N.[Cl][Pt][Cl] [Cisplatin, reference compound]
- cancer cell killing after 2 hours of treatment, cell survival measured one day later (HCT-116 cells [1]): additional killing effect
- % cell survival (HCT-116 cells [2]; Study 4, 2.5 μM Cisplatin, alone or with 40 μM Vitamin E, 20 μM Selenite, 150 μM Quercetin as named, 37° C.): 74.7%
- % cell survival (HCT-116 cells [2]; Study 4, 2.5 μM Cisplatin, alone or with 40 μM Vitamin E, 20 μM Selenite, 150 μM Quercetin as named, 42° C. 1 hr): 61.7%
- % cell survival (HCT-116 cells [2]; Study 4, 10 μM Cisplatin, alone or with 40 μM Vitamin E, 20 μM Selenite, 150 μM Quercetin as named, 37° C.): 37.5%
- % cell survival (HCT-116 cells [2]; Study 4, 10 μM Cisplatin, alone or with 40 μM Vitamin E, 20 μM Selenite, 150 μM Quercetin as named, 42° C. 1 hr): 37.5%
- % cell survival (HCT-116 cells [2]; Study 5, 2.5 μM Cisplatin, alone or with 100 nM Vitamin D, 40 μM Vitamin E, 20 μM Selenite, 150 μM Quercetin as named, 37° C.): 86.1%
- % cell survival (HCT-116 cells [2]; Study 5, 2.5 μM Cisplatin, alone or with 100 nM Vitamin D, 40 μM Vitamin E, 20 μM Selenite, 150 μM Quercetin as named, 42° C. 1 hr): 76.0%
- % cell survival (HCT-116 cells [2]; Study 5, 10 μM Cisplatin, alone or with 100 nM Vitamin D, 40 μM Vitamin E, 20 μM Selenite, 150 μM Quercetin as named, 37° C.): 52.1%
- % cell survival (HCT-116 cells [2]; Study 5, 10 μM Cisplatin, alone or with 100 nM Vitamin D, 40 μM Vitamin E, 20 μM Selenite, 150 μM Quercetin as named, 42° C. 1 hr): 41.9%
- GI50 (HCT-116 cells [2]; [3]): 12 µM

Compound: CO[C@@]12[C@H](COC(N)=O)C3=C(C(=O)C(C)=C(N)C3=O)N1C[C@@H]1N[C@@H]12 [Mitomycin C, reference compound]
- % cell survival (HCT-116 cells [2]; Study 3, 0.2 μM Mitomycin C, alone or with 1.25 mM Vitamin C, 20 μM Selenite as named, 37° C.): 35%
- % cell survival (HCT-116 cells [2]; Study 3, 0.2 μM Mitomycin C, alone or with 1.25 mM Vitamin C, 20 μM Selenite as named, 42° C. 1 hr): 36.9%
- % cell survival (HCT-116 cells [2]; Study 3, 0.8 μM Mitomycin C, alone or with 1.25 mM Vitamin C, 20 μM Selenite as named, 37° C.): 16.9%
- % cell survival (HCT-116 cells [2]; Study 3, 0.8 μM Mitomycin C, alone or with 1.25 mM Vitamin C, 20 μM Selenite as named, 42° C. 1 hr): 15.5%
- % cell survival (HCT-116 cells [2]; Study 4, 0.2 μM Mitomycin C, alone or with 40 μM Vitamin E, 20 μM Selenite, 150 μM Quercetin as named, 37° C.): 33.3%
- % cell survival (HCT-116 cells [2]; Study 4, 0.2 μM Mitomycin C, alone or with 40 μM Vitamin E, 20 μM Selenite, 150 μM Quercetin as named, 42° C. 1 hr): 36.5%
- % cell survival (HCT-116 cells [2]; Study 4, 0.8 μM Mitomycin C, alone or with 40 μM Vitamin E, 20 μM Selenite, 150 μM Quercetin as named, 37° C.): 16.4%
- % cell survival (HCT-116 cells [2]; Study 4, 0.8 μM Mitomycin C, alone or with 40 μM Vitamin E, 20 μM Selenite, 150 μM Quercetin as named, 42° C. 1 hr): 22.1%
- GI50 (HCT-116 cells [2]; [3]): 1.3 µM

Compound: O=c1c(O)c(-c2ccc(O)c(O)c2)oc2cc(O)cc(O)c12 [Quercetin]
- % cell survival (HCT-116 cells [2]; Study 2, 20 μM, 37° C.): 129%
- % cell survival (HCT-116 cells [2]; Study 2, 20 μM, 42° C. 1 hr): 118%
- % cell survival (HCT-116 cells [2]; Study 2, 100 μM, 37° C.): 123%
- % cell survival (HCT-116 cells [2]; Study 2, 100 μM, 42° C. 1 hr): 111%
- growth inhibition at the concentrations tested (HCT-116 cells [2]; Study 2): did not show significant growth inhibition
- growth promoting effect (HCT-116 cells [2]; Study 2): slight growth promoting effect at the lower concentrations tested
- cancer cell killing without chemotherapeutic agent, compared to the agents alone (HCT-116 cells [2]; Study 3, FIG. 3b): did not show enhanced killing
- effect on cytotoxicity of the co-administered treatment (HCT-116 cells [2]; Study 4, FIG. 4b-4d): reduced the cytotoxicity of Selenite
- effect on cytotoxicity of the co-administered treatment (HCT-116 cells [2]; Study 5, FIG. 5b-5e): reduced the cytotoxicity of Selenite/Vit-D/Vit-E
- % cell survival (HCT-116 cells [2]; [4]): 98.0%
- % cell survival (HCT-116 cells [2]; [5]): 89.5%
- effect on the cytotoxicity caused by Selenite (HCT-116 cells [2]): reduced the cytotoxicity caused by Selenite

Compound: O=[Se](O)O [Selenite]
- effect of hyperthermia treatment on cell growth (HCT-116 cells [2]; Study 2, 42° C. 1 hr vs 37° C.): No significant effect
- % cell survival (HCT-116 cells [2]; [6]): 45%
- % cell survival (HCT-116 cells [2]; [7]): 39.7% and 39.8%
- % cell survival (HCT-116 cells [2]; [4]): 42.6%
- % cell survival (HCT-116 cells [2]; [5]): 32.9%
- GI50 (HCT-116 cells [2]; [3]): ~30 µM

Compound: O=C1O[C@H]([C@@H](O)CO)C(O)=C1O [Vitamin C]
- GI50 (HCT-116 cells [2]): ~2000 µM
- % cell survival (HCT-116 cells [2]; Study 2, 0.08 mM, 37° C.): 102%
- % cell survival (HCT-116 cells [2]; Study 2, 0.08 mM, 42° C. 1 hr): 92.6%
- % cell survival (HCT-116 cells [2]; Study 2, 0.31 mM, 37° C.): 97.6%
- % cell survival (HCT-116 cells [2]; Study 2, 0.31 mM, 42° C. 1 hr): 89%
- effect on the cytotoxicity caused by Selenite (HCT-116 cells [2]): did not appear to modulate the cytotoxicity caused by Selenite

Compound: Vitamin D
- cell survival (HCT-116 cells [2]; Study 2, 37° C.): 122%
- cell survival (HCT-116 cells [2]; Study 2, 42° C. 1 hr): 110%
- growth inhibition at the concentrations tested (HCT-116 cells [2]; Study 2): did not show significant growth inhibition
- growth promoting effect (HCT-116 cells [2]; Study 2): slight growth promoting effect at the higher concentrations tested

Compound: Vitamin E
- % cell survival (HCT-116 cells [2]; Study 2, 0.32 μM, 37° C.): 111%
- % cell survival (HCT-116 cells [2]; Study 2, 0.32 μM, 42° C. 1 hr): 95.5%
- % cell survival (HCT-116 cells [2]; Study 2, 1.6 μM, 37° C.): 116%
- % cell survival (HCT-116 cells [2]; Study 2, 1.6 μM, 42° C. 1 hr): 102%
- growth promoting effect (HCT-116 cells [2]; Study 2): slight growth promoting effect at the lower concentrations tested for 37 °C treated group
- % cell survival (HCT-116 cells [2]; [6]): 105.7%
- % cell survival (HCT-116 cells [2]; [7]): 81.6%
- % cell survival (HCT-116 cells [2]; [4]): 112.2%
- % cell survival (HCT-116 cells [2]; [5]): 95.5%
- GI50 (HCT-116 cells [2]; [3]): ~90 µM

From US10124022B2, “Compositions and methods for enhancing the effectiveness of systemic, HIPEC, IP, and related cancer treatments” (ChemoTherapeutics, LLC, priority 2010, dated 2018)
